# Measured values published in publication PMC9596378, “Discovery and molecular basis of subtype-selective cyclophilin inhibitors” (Nature Chemical Biology, 2022).
# Where two headings read alike, the source gives them in different places.
# Legend:
# [1] = molecular target: T1, NKTR (Homo sapiens, UniProt P30414); assay: Chymotrypsin coupled prolyl-isomerase assay; type: biochemical
# T1 construct: NKTR (UniProtKB Entry P30414: residues 7–179); host or cells: E. coli BL21(DE3)
# T1 sequence (P30414 7-179): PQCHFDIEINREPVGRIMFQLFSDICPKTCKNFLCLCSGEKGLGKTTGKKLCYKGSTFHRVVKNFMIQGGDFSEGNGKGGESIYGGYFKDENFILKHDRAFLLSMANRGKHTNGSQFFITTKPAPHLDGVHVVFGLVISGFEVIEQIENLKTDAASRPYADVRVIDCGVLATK
# [2] = molecular target: T2, CypD R124K (Homo sapiens, UniProt P30405, R124K); assay: Chymotrypsin coupled prolyl-isomerase assay; type: biochemical; settings: mutant CypD R124K; read-out: Mutant Cyclophilin Prolyl Isomerase Inhibition IC50 Values, CypD R124K
# T2 construct: made in house; host or cells: E. coli BL21(DE3)
# T2 sequence (P30405 45-207 R124K): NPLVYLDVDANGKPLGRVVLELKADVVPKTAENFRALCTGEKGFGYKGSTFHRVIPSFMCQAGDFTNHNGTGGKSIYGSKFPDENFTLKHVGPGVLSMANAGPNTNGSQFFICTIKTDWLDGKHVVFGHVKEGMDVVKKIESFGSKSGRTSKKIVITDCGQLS
# Summary of the method: (§1)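 Cyclophilin (5 nM final) in 25 mM HEPES pH 7.3, 100 mM NaCl, 0.01% Triton X-100 was preincubated with compound (0.25% DMSO) 5 min at 2–3 °C, then with 25 µM α-chymotrypsin 5 min. Suc-AAPF-AMC (5 µM, in LiCl/trifluoroethanol) started the reaction; AMC fluorescence read every 1 s for 330 s.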
# [3] = molecular target: T3, CypD R124A (Homo sapiens, UniProt P30405, R124A); assay: Chymotrypsin coupled prolyl-isomerase assay; type: biochemical; settings: mutant CypD R124A; read-out: Mutant Cyclophilin Prolyl Isomerase Inhibition IC50 Values, CypD R124A
# T3 construct: made in house; host or cells: E. coli BL21(DE3)
# T3 sequence (P30405 45-207 R124A): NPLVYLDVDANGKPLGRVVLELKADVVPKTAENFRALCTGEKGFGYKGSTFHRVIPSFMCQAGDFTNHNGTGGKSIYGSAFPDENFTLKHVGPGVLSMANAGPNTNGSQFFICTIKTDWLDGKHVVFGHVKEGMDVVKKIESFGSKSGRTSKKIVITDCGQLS
# Summary of the method: as §1
# [4] = molecular target: T4, CypD K118A (Homo sapiens, UniProt P30405, K118A); assay: Chymotrypsin coupled prolyl-isomerase assay; type: biochemical; settings: prolyl-isomerase inhibition
# T4 construct: made in house; host or cells: E. coli BL21(DE3)
# T4 sequence (P30405 45-207 K118A): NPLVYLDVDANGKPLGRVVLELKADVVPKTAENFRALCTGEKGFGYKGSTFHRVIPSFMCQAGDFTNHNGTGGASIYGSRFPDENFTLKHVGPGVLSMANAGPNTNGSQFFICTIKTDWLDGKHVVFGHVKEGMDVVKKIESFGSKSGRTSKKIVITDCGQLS
# Summary of the method: as §1
# [5] = molecular target: T5, CypD K118E (Homo sapiens, UniProt P30405, K118E); assay: Chymotrypsin coupled prolyl-isomerase assay; type: biochemical; settings: prolyl-isomerase inhibition
# T5 construct: made in house; host or cells: E. coli BL21(DE3)
# T5 sequence (P30405 45-207 K118E): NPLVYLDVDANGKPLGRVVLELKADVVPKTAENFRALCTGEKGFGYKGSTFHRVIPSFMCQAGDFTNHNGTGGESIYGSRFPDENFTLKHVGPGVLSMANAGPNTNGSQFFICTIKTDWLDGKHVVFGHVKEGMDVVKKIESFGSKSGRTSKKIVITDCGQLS
# Summary of the method: as §1
# [6] = molecular target: T6, CypE (Homo sapiens, UniProt Q9UNP9); assay: Chymotrypsin coupled prolyl-isomerase assay; type: biochemical
# T6 construct: PPIE (UniProtKB Entry Q9UNP9: residues 131–301); host or cells: E. coli BL21(DE3)
# T6 sequence (Q9UNP9 131-301): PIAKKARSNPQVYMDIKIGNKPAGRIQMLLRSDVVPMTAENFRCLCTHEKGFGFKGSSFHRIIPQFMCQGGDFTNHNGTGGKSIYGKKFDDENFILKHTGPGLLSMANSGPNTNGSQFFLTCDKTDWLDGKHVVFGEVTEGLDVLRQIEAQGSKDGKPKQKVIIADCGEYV
# Summary of the method: as §1
# [7] = molecular target: T7, CypC (Homo sapiens, UniProt P45877); assay: Chymotrypsin coupled prolyl-isomerase assay; type: biochemical
# T7 construct: PPIC (UniProtKB Entry P45877: residues 24–212); host or cells: E. coli BL21(DE3)
# T7 sequence (P45877 24-212): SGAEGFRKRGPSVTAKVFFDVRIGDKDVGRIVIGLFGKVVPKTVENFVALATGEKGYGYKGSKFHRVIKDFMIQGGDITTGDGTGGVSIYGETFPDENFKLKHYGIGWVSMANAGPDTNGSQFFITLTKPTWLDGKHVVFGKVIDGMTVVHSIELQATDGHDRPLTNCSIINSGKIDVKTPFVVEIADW
# Summary of the method: as §1
# [8] = molecular target: T8, CypA E81S/K82R (Homo sapiens, UniProt P62937, E81S/K82R); assay: Chymotrypsin coupled prolyl-isomerase assay; type: biochemical; settings: prolyl-isomerase inhibition; read-out: IC50 CypA E81S/K82R
# T8 construct: Lane 12- SNA-CypA E81S/K82R (1-165);; His6 tag with TEV site (2BT vector); SNA remnant stays on the N-terminus (N, cleaved yes); made in house; host or cells: E. coli BL21(DE3)
# T8 sequence (P62937 whole entry E81S/K82R): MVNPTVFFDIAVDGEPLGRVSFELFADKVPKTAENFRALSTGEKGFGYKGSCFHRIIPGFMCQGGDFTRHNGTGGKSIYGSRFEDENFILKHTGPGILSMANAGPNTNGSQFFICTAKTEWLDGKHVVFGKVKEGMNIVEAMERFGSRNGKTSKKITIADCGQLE
# Summary of the method: as §1
# [9] = molecular target: Cyp40 (Homo sapiens, UniProt Q08752); assay: Chymotrypsin coupled prolyl-isomerase assay
# Cyp40, sequence (Q08752 1-183): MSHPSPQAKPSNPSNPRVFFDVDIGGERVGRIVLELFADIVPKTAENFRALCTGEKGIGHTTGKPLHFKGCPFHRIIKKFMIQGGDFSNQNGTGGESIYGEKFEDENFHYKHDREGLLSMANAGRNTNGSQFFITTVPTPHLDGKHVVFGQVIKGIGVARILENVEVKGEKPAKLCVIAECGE
# Summary of the method: as §1
# [10] = molecular target: T9, CypB (Homo sapiens, UniProt P23284); assay: biochemical
# T9 construct: PPIB (UniProtKB Entry P23284: residues 34–216); His6 with TEV site (2BT vector leader) (N); made in house; host or cells: E. coli BL21(DE3)
# T9 sequence (P23284 34-216): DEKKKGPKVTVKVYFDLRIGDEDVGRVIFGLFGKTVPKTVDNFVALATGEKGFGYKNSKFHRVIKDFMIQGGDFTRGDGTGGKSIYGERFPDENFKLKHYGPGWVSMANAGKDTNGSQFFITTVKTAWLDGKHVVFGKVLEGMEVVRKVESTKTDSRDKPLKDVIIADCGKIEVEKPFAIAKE
# Summary of the method: as §1
structure (smiles),measurement,setting,value
NCCOCCNC(=O)[C@@H]1CCNC(=O)/C=C/C(=O)N2CCC[C@](Cc3ccccc3)(C2)C(=O)N[C@@H](Cc2ccc(-c3ccc(C(CC(=O)O)CC(=O)O)cc3)cc2)C(=O)NCc2ccccc2CC(=O)N1 [Compound B53],IC50,"[1]; Independent replicate 1, read-out: IC50 NKTR",> 50000 nM
same,IC50,"[1]; Independent replicate 2, read-out: IC50 NKTR",> 50000 nM
same,IC50,"[1]; Independent replicate 3, read-out: IC50 NKTR",> 50000 nM
same,IC50,"[1]; Independent replicate 4, read-out: IC50 NKTR",> 50000 nM
same,IC50,"[1]; prolyl-isomerase inhibition, 5 nM cyclophilin, read-out: IC50 NKTR",> 50000 nM
same,IC50,"[1]; wild-type NKTR, read-out: Wild-Type Cyclophilin Prolyl Isomerase Inhibition IC50 Values, NKTR",> 50000 nM
same,IC50,[2],100 nM
same,IC50,[3],32 nM
same,IC50,[4],900 nM
same,IC50,[5],4000 nM
same,IC50,"[6]; Independent replicate 1, read-out: IC50 CypE",600 ± 300 nM
same,IC50,"[6]; Independent replicate 2, read-out: IC50 CypE",900 ± 300 nM
same,IC50,"[6]; Independent replicate 3, read-out: IC50 CypE",600 ± 200 nM
same,IC50,"[6]; Independent replicate 4, read-out: IC50 CypE",1100 ± 600 nM
same,IC50,"[6]; wild-type CypE, read-out: Wild-Type Cyclophilin Prolyl Isomerase Inhibition IC50 Values, CypE",800 nM
same,IC50,"[7]; Independent replicate 1, read-out: IC50 CypC",> 50000 nM
same,IC50,"[7]; Independent replicate 2, read-out: IC50 CypC",> 50000 nM
same,IC50,"[7]; Independent replicate 3, read-out: IC50 CypC",> 50000 nM
same,IC50,"[7]; Independent replicate 4, read-out: IC50 CypC",> 50000 nM
same,IC50,"[7]; prolyl-isomerase inhibition, 5 nM cyclophilin, read-out: IC50 CypC",> 50000 nM
same,IC50,"[7]; wild-type CypC, read-out: Wild-Type Cyclophilin Prolyl Isomerase Inhibition IC50 Values, CypC",> 50000 nM
same,IC50,[8],180 nM
same,IC50,"[9]; IC50 Cyp40, Independent replicate 1",> 50000 nM
same,IC50,"[9]; IC50 Cyp40, Independent replicate 2",> 50000 nM
same,IC50,"[9]; IC50 Cyp40, Independent replicate 3",> 50000 nM
same,IC50,"[9]; IC50 Cyp40, Independent replicate 4",> 50000 nM
same,IC50,"[9]; IC50 Cyp40, prolyl-isomerase inhibition, 5 nM cyclophilin",> 50000 nM
same,IC50,"[9]; Wild-Type Cyclophilin Prolyl Isomerase Inhibition IC50 Values, Cyp40, wild-type Cyp40",> 50000 nM
same,IC50,"[10]; CypB (comparator for CypB E121S), read-out: Mutant Cyclophilin Prolyl Isomerase Inhibition IC50 Values, CypB",500 nM
same,IC50,"[10]; Independent replicate 2, read-out: IC50 CypB",1600 ± 600 nM
same,IC50,"[10]; Independent replicate 3, read-out: IC50 CypB",1100 ± 500 nM
same,IC50,"[10]; Independent replicate 4, read-out: IC50 CypB",1300 ± 800 nM
same,IC50,"[10]; prolyl-isomerase inhibition, 5 nM cyclophilin, read-out: IC50 CypB",1100 nM
same,IC50,"[10]; prolyl-isomerase inhibition, read-out: IC50 CypB",1100 nM
same,IC50,"[10]; wild-type CypB, read-out: Wild-Type Cyclophilin Prolyl Isomerase Inhibition IC50 Values, CypB",1100 nM
